Laboratory results published in patent US20050014766A1, “Use of n-(indolecarbonyl-)piperazine derivatives” (priority 2002, published 2005).

How the values were obtained:
mice [1] = test: light-dark choice test (model of generalised anxiety disorders); type: in vivo, mouse; details: period of 5 minutes
Experimental: A typical model of generalised anxiety disorders is the “light-dark choice test” as described by J. N. Crawly, Pharmacol. Biochem Behav. 1981, 15: 695-699.
The corresponding device for the selection of brightness or darkness consists of two boxes connected to one another, one box being darkened and the other being brightly illuminated. A mouse is placed in one of the boxes, and it is measured how much time the mouse spends in the illuminated box over a period of 5 minutes. Normal mice only go into the illuminated compartment rarely and spend almost all the time in the dark compartment.

mice [2] = test: four plate test (model of acute stress anxiety); type: in vivo, mouse; details: 5 minute test period
Text: A typical model of acute stress anxiety is the “four plate test” as described by C. Aron et al., Neuropharmacology 1971, 10: 459-469.
The device consists of a small box whose base is composed of four metal plates. Each time the mouse moves from one plate to the next, it receives a short current pulse on the foot, thus reducing the investigative behaviour. The number of changes from one plate to the next which occur with punishment (i.e. the number of current pulses accepted by the animal) is recorded over a test period of 5 minutes.

[3] = test system: recombinant in-bred mice (crossing of the strains C57ML/6J and DBA/2J); test: pre-pulse inhibition in recombinant in-bred mice with inherently poor pre-pulse inhibition; type: in vivo; details: recombinant mouse strain with poor pre-pulse inhibition
Text: A typical animal model of schizotypical personality disorders and the prevention of schizophrenia in first-degree relatives is restricted pre-pulse inhibition. Pre-pulse inhibition is a non-species-specific phenomenon in which the normal reflex reactions to discrete sensory events are reduced if slight prior stimulation has been carried out in advance; pre-pulse inhibition can be used to assess sensomotory gating processes. In patients with schizotypical personality disorders and their first-degree relatives (in whom there is a high risk of the development of schizotypical personality disorders), the normal function of pre-pulse inhibition is disturbed (Braff, D. et al., Psychophysiology, 1978; 15:339-343; Braff, D., Arch Gen Psychiatry, 1992; 49:206-215; Bolino, F. et al., Biol Psychiatry, 1994; 36:670-679). Recombinant in-bred mice having an inherently poor pre-pulse inhibition (crossing of the strains C57ML/6J and DBA/2J) represent a corresponding animal model (McCaughran, J. A. Jr. et al., Psychopharmacology 1997; 134:131-140; McCaughran, J. A. Jr. et al., Behav. Genetics, 1999; 29:21-30.).

monkeys = test: DMTS method (delayed matching to sample) in monkeys; type: in vivo, monkey
Text: Of the learning models, the DMTS method (DMTS=delayed matching to sample) in monkeys (Buccafusco, J. J. et al., Psychopharmacology, 1995; 120: 256-266; Buccafusco, J. J. et al., Drug Dev. Res., 1996; 38: 196-203; Prendergast, M. A. et al., Pharmacol. Biochem. Behav., 1997; 56: 81-87) is potentially of interest since the various aspects of learning and memory can be measured in this method. An experiment begins with the illumination of a sample key provided with one of three coloured discs. The monkeys are taught to press the illuminated sample key in order to initiate the experiment. After the delay interval, the two keys available for selection illuminate, but not the sample key. One of the two keys available for selection is offered with the colour that the sample key had before the delay interval, while the other (wrong) key available for selection has one of the two other colours. If the monkey makes the correct assignment (i.e. if it presses the key available for selection which has the same colour as the stimulus key), the response is rewarded. […] Finally, all stimulus equalisation measures were assigned to the delay duration. […]

mice [4] = test: isolation-induced fighting behaviour in mice (aggression model); type: in vivo, mouse
Text: A typical animal model of aggression is the isolation-induced fighting behaviour in mice (Paivarinta, P., Pharmacol. Biochem. Behav., 1992; 42: 35-39; Haller, J. et al., Psychopharmacology, 1996; 126: 345-350). […] The number of bites or bite attacks can be used as a measure of the aggression.

rats = test: T-labyrinth learning and memory model in rats; type: in vivo, rat; details: after denial of food
Text: In a learning and memory model in rats, the T-labyrinth method is used, in which rats, after denial of food, have to learn to find a reward in the arm of the labyrinth which is opposite the arm in which the reward was offered in the previous experiment (Moran, P. et al., Brain Res. 1992; 569:156-158).

mice [5] = test: hyperlocomotory activity induced by dizocilpine; type: in vivo, mouse
Text: Animal models of treatment-resistant schizophrenia and psychosis in tardive dyskinesia are so-called stimulant-induced psychoses (Ellison, G., Brain Res. Rev. 1994; 137:193-197). Chronic misuse of ‘dopamine agonists’, such as, for example, amphetamine or cocaine, or antagonists of N-methyl-D-aspartate (NMDA), such as, for example, ketamine, phencyclidine and dizocilpine, causes a syndrome of behavioural effects which has many features in common with the symptom complex of schizophrenia, i.e. these substances induce schizophrenia-like symptoms in healthy people and accelerate psychotic reactions in stabilised schizophrenic patients (Luby, E. D. et al., Am. Med. Assoc. Arch. Neurol. Psychiatry, 1959; 119:61-67; Lahti, A. C. et al., Neuropsychopharmacology, 1995; 13:9-19; Malhotra, A. K. et al., Neuropsychopharmacology, 1996; 14:301-307; Adler, C. M. et al., Biol. Psychiatry 1998; 43:811-816). In rodents, these stimulants cause extreme hyperlocomotory activity (Schaefer, G. J. et al., Neuropharmacology 1984; 23:909-914; Millan, M. J. et al., Eur. J. Neurosci. 1999; 11:419-432; O'Neill, M. F. et al., Psychopharmacology, 1999, 145:237-250).

N#Cc1c[nH]c2c(C(=O)N3CCN(CCc4ccc(F)cc4)CC3)cccc12 [(3-cyano-1H-indol-7-yl)[4-(4-fluorophenethyl)piperazin-1-yl]methanone]
time spent by the mice in the illuminated compartment (mice [1]): increases the time spent by the mice in the illuminated compartment | number of changes with punishment (mice [2]): increases the number of changes with punishment | deficits in pre-pulse inhibition [3]: significantly reduces the deficits in pre-pulse inhibition | DMTS hit rate and general aspects of working memory (monkeys): clearly improves the DMTS hit rate | isolation-induced fighting behaviour (mice [4]): reduces the isolation-induced fighting behaviour | learning and memory in the T-labyrinth (rats): has memory-promoting effects in the learning process and facilitates better and faster learning with a shorter performance time | hyperlocomotory activity induced by dizocilpine (mice [5]): significantly reduces hyperlocomotory activity
